# Data as given in patent publication US11504365B2 (AVEO Pharmaceuticals, Inc., priority 2018, dated 2022).
# Where two headings read alike, the source gives them in different places.
# Assays:
# [1] = tested on: refractory advanced renal cell carcinoma (RCC)
# Source text: (§1) The randomization of subjects was stratified according to the International Metastatic Renal Cell Carcinoma Database Consortium (IMDC) risk category (favorable, intermediate, poor) and according to prior therapy which could be: 1) two prior VEGFR TKIs; 2) a check point inhibitor (e.g., a PD-1 or PDL-1 inhibitor) and a prior VEGFR TKI; or 3) a VEGFR TKI plus any other systemic agent. Once the strata were identified, treatment was randomly assigned to a subject with the strata using a complete permuted block design in an unblended fashion (open-label).
# Cycles were repeated every 4 weeks.
# (§2) Subjects were analyzed as randomized • 2. […] Subjects were analyzed as treated. • 3. […] Subjects were analyzed as treated.
# (§3) The primary efficacy endpoint (PFS) and secondary efficacy endpoints (OS, ORR, and DoR) analyses were carried out using the ITT population. The primary efficacy endpoint of PFS also was analyzed using the PP population.
# (§4) The IRR was the primary data source for the PFS analysis.
# (§5) The primary analysis was carried out by using a stratified Log-Rank test, in which the stratification factors were IMDC risk category (favorable; intermediate; poor) and prior therapy (two prior VEGFR TKIs; a prior checkpoint inhibitor (PD-1 or PD1 L inhibitor) plus a prior VEGFR TKI; a prior VEGFR TKI plus any other systemic agent), and using a two-sided 5% significance level. The distribution of the PFS was estimated using the Kaplan-Meier method.
# (§6) The DoR was analyzed using the same method as the progression-free survival analysis. DoR was only calculated for the subgroup of subjects with an objective tumor response (PR or CR).
# [2] = tested on: refractory advanced renal cell carcinoma (RCC); test: Randomized open-label Phase 3 study of tivozanib versus sorafenib, efficacy (PFS, OS, ORR, DoR); conditions: for median PFS: ITT population, independent radiologic review, stratified log rank p-value 0.0165; for median OS: ITT, two years after final patient enrollment, stratified log rank p-value 0.9501; for median PFS, subset receiving a prior check point inhibitor: prior checkpoint inhibitor at any time, tivozanib n=52, sorafenib n=46, unstratified Log-rank p-value 0.0616; for duration of response (DoR), 1st quartile: subjects with objective tumor response (PR or CR), not statistically significant; for 1-year probability of survival: subjects with prior checkpoint inhibitor, FIG. 5 (Kaplan-Meier analysis of IRR PFS)
# Source text: as §1
# Cycles were repeated every 4 weeks.
# as §2, §3, §4, §5, §6
# [3] = 1.5 mg/day, 3 weeks on, 1 week off, cited from earlier work
# [4] = cited from earlier work
# [5] = prior phase III clinical trial; cited from earlier work
# [6] = subjects with prior therapy with a VEGFR TKI plus any other systemic agent
# [7] = subjects with prior therapy with a checkpoint inhibitor and a prior VEGF TKI
# [8] = subjects with prior therapy with two VEGFR TKIs
smiles,measurement,setting,value
"CNC(=O)c1cc(Oc2ccc(NC(=O)Nc3ccc(Cl)c(C(F)(F)F)c3)cc2)ccn1 [sorafenib, reference compound]",ORR (CR + PR),[1],8.0%
same,median PFS,[2],3.88 months
same,median OS,[2],19.65 months
same,"median PFS, subset receiving a prior check point inhibitor",[2],5.91 months
same,"duration of response (DoR), 1st quartile",[2],5.55 months
same,1-year probability of survival,[2],0.05
same,ORR,[2]; [6],9.8%
same,ORR,[2]; [7],6.8%
same,ORR,[2]; [8],7.5%
"COc1cc2nccc(Oc3ccc(NC(=O)Nc4cc(C)on4)c(Cl)c3)c2cc1OC [tivozanib, N-{2-chloro-4-[(6,7-dimethoxy-4-quinolyl)oxy]-phenyl}-N′-(5-methyl-3-isoxazolyl)urea]",study subjects requiring a dose interruption,[3]; 8/272 subjects,2.9%
same,study subjects requiring a dose reduction,[3]; 23/272 subjects,8.5%
same,median PFS,[2],5.59 months
same,difference in OS between tivozanib and sorafenib in subgroup analyses,"[2]; ITT subgroups, Cox Model hazard ratios with 95% confidence intervals",do not indicate a statistically significant difference in OS
same,median OS,[2],16.39 months
same,ORR (CR + PR),"[2]; all subjects, 31 PR/172 tivozanib, 14 PR/175 sorafenib",18.0%
same,"median PFS, subset receiving a prior check point inhibitor",[2],7.29 months
same,"duration of response (DoR), 1st quartile",[2],9.79 months
same,1-year probability of survival,[2],0.37
same,ORR,[2]; [6],16.7%
same,ORR,[2]; [7],24.4%
same,ORR,[2]; [8],15.2%
same,difference in OS between the two treatment groups,"[2]; subset with prior checkpoint inhibitor, unstratified Log-rank p-value 0.8360",no statistically significant differences
same,subjects experiencing a dose limiting toxicity (DLT),[4]; 2 mg/day tivozanib group,3 of 8
same,maximum tolerated dose (MTD),[4]; previous study KRN951/03-B01,1.5 mg/day
same,reversibility of toxicities upon stopping treatment,[4]; previous study KRN951/03-B01,rapidly reversible
same,"treatment interruptions and dose reductions due to AEs, compared with sorafenib",[5],fewer treatment interruptions and dose reductions due to AEs
